# Test results: ChEMBL document CHEMBL3885861, “Open TG-GATES”
# Organism: Rattus norvegicus
# Assay: Open TG-GATES - Regimen: Single
# Format: toxicity, organism-based, Sprague-Dawley
# Design: regimen Single, gender Male, age 6 weeks
# Conditions: in vivo, po, route gavage; for Eos / Fbg / Hb / Ht / Lym / MCH / MCHC / MCV / Mono / Neu / PT / Plat / RBC / Ret / APTT / Bas / WBC: tissue Blood; for KIDNEY_L / KIDNEY_R / KIDNEY_TOTAL: tissue Kidney; for LIVER: tissue Liver; for ALP / ALT / AST / BUN / CRE / Ca / DBIL / GLC / IP / K / LDH / Na / PL / RALB / TBIL / TC / TG / TP / gamma-GTP: tissue Plasma
# [1] = 50 mg/kg, 3 h, dose level Middle
# [2] = 50 mg/kg, 6 h, dose level Middle
# [3] = 50 mg/kg, 9 h, dose level Middle
# [4] = 50 mg/kg, 24 h, dose level Middle
# [5] = 150 mg/kg, 3 h, dose level High
# [6] = 150 mg/kg, 6 h, dose level High
# [7] = 150 mg/kg, 9 h, dose level High
# [8] = 150 mg/kg, 24 h, dose level High
structure (smiles),measurement,setting,value
Oc1ncnc2[nH]ncc12 [ALLOPURINOL],Eos,[1],0.8%
same,Fbg,[1],209.6 mg/dL
same,Hb,[1],14 g/dL
same,Ht,[1],41.6%
same,Lym,[1],80%
same,MCH,[1],21.9 pg
same,MCHC,[1],33.7%
same,MCV,[1],64.9 fL
same,Mono,[1],8.2%
same,Neu,[1],11.2%
same,PT,[1],12.2 s
same,Plat,[1],109.1 x10_4/uL
same,RBC,[1],640.4 x10_4/ul
same,Ret,[1],7.8%
same,KIDNEY_L,[1],1 g
same,KIDNEY_R,[1],1.1 g
same,KIDNEY_TOTAL,[1],2.1 g
same,LIVER,[1],9.9 g
same,ALP,[1],877.8 IU/L
same,ALT,[1],30.4 IU/L
same,AST,[1],62.8 IU/L
same,BUN,[1],15.6 mg/dL
same,CRE,[1],0.6 mg/dL
same,Ca,[1],11.2 mg/dL
same,DBIL,[1],0.1 mg/dL
same,GLC,[1],195.4 mg/dL
same,IP,[1],9.9 mg/dL
same,K,[1],4.6 meq/L
same,LDH,[1],90.6 IU/L
same,Na,[1],140 meq/L
same,PL,[1],136.2 mg/dL
same,RALB,[1],3.8 g/dL
same,TBIL,[1],0.4 mg/dL
same,TC,[1],80.4 mg/dL
same,TG,[1],36.6 mg/dL
same,TP,[1],5.6 g/dL
same,gamma-GTP,[1],1 IU/L
same,TERMINAL_BW,[2],208.2 g
same,APTT,[2],16.7 s
same,Bas,[2],0%
same,Eos,[2],0.8%
same,Fbg,[2],218.8 mg/dL
same,Hb,[2],13.6 g/dL
same,Ht,[2],40.6%
same,Lym,[2],69%
same,MCH,[2],21.4 pg
same,MCHC,[2],33.5%
same,MCV,[2],64 fL
same,Mono,[2],9.2%
same,Neu,[2],21.2%
same,PT,[2],12.3 s
same,Plat,[2],98.1 x10_4/uL
same,RBC,[2],634 x10_4/ul
same,Ret,[2],8.1%
same,WBC,[2],122.8 x10_2/uL
same,KIDNEY_L,[2],1.1 g
same,KIDNEY_R,[2],1.2 g
same,KIDNEY_TOTAL,[2],2.2 g
same,LIVER,[2],9.5 g
same,ALP,[2],927.4 IU/L
same,ALT,[2],29.6 IU/L
same,AST,[2],63.6 IU/L
same,BUN,[2],15 mg/dL
same,CRE,[2],0.5 mg/dL
same,Ca,[2],11.6 mg/dL
same,DBIL,[2],0.014 mg/dL
same,GLC,[2],185 mg/dL
same,K,[2],4.8 meq/L
same,LDH,[2],81.2 IU/L
same,Na,[2],140 meq/L
same,PL,[2],130.6 mg/dL
same,RALB,[2],3.7 g/dL
same,TBIL,[2],0.4 mg/dL
same,TC,[2],72.4 mg/dL
same,TG,[2],58.8 mg/dL
same,TP,[2],5.5 g/dL
same,gamma-GTP,[2],1 IU/L
same,TERMINAL_BW,[3],207.1 g
same,APTT,[3],16.8 s
same,Bas,[3],0%
same,Eos,[3],1.2%
same,Fbg,[3],222.6 mg/dL
same,Hb,[3],13.7 g/dL
same,Ht,[3],40.9%
same,Lym,[3],67.2%
same,MCH,[3],22 pg
same,MCHC,[3],33.5%
same,MCV,[3],65.9 fL
same,Mono,[3],4.6%
same,Neu,[3],27.4%
same,PT,[3],12.5 s
same,Plat,[3],108.6 x10_4/uL
same,RBC,[3],622 x10_4/ul
same,Ret,[3],8.9%
same,WBC,[3],86.1 x10_2/uL
same,KIDNEY_L,[3],1 g
same,KIDNEY_R,[3],1 g
same,KIDNEY_TOTAL,[3],2 g
same,LIVER,[3],8.8 g
same,ALP,[3],846.2 IU/L
same,ALT,[3],29.4 IU/L
same,AST,[3],60.2 IU/L
same,BUN,[3],12.2 mg/dL
same,CRE,[3],0.4 mg/dL
same,DBIL,[3],0.044 mg/dL
same,GLC,[3],178.4 mg/dL
same,IP,[3],10.9 mg/dL
same,K,[3],4.6 meq/L
same,LDH,[3],80.8 IU/L
same,Na,[3],139.2 meq/L
same,PL,[3],147 mg/dL
same,RALB,[3],3.6 g/dL
same,TBIL,[3],0.4 mg/dL
same,TC,[3],82.8 mg/dL
same,TG,[3],30.2 mg/dL
same,TP,[3],5.5 g/dL
same,gamma-GTP,[3],1.4 IU/L
same,TERMINAL_BW,[4],219.7 g
same,APTT,[4],16.3 s
same,Bas,[4],0%
same,Eos,[4],1.2%
same,Fbg,[4],229.6 mg/dL
same,Hb,[4],13.6 g/dL
same,Ht,[4],40.6%
same,Lym,[4],81.2%
same,MCH,[4],21.2 pg
same,MCHC,[4],33.4%
same,MCV,[4],63.5 fL
same,Mono,[4],4.8%
same,Neu,[4],13.2%
same,PT,[4],12 s
same,Plat,[4],98.8 x10_4/uL
same,RBC,[4],641 x10_4/ul
same,Ret,[4],6.9%
same,WBC,[4],111.4 x10_2/uL
same,KIDNEY_L,[4],1 g
same,KIDNEY_R,[4],1 g
same,KIDNEY_TOTAL,[4],2 g
same,ALP,[4],1004.2 IU/L
same,ALT,[4],32 IU/L
same,AST,[4],63 IU/L
same,BUN,[4],18.6 mg/dL
same,CRE,[4],0.5 mg/dL
same,Ca,[4],11 mg/dL
same,DBIL,[4],0.022 mg/dL
same,GLC,[4],183.4 mg/dL
same,IP,[4],7.9 mg/dL
same,K,[4],4.9 meq/L
same,LDH,[4],88.4 IU/L
same,Na,[4],139.2 meq/L
same,PL,[4],162.4 mg/dL
same,RALB,[4],3.8 g/dL
same,TBIL,[4],0.3 mg/dL
same,TC,[4],81.4 mg/dL
same,TG,[4],120 mg/dL
same,TP,[4],5.8 g/dL
same,gamma-GTP,[4],1.6 IU/L
same,TERMINAL_BW,[5],210.3 g
same,APTT,[5],16.8 s
same,Bas,[5],0%
same,Eos,[5],0.8%
same,Fbg,[5],220.2 mg/dL
same,Hb,[5],13.9 g/dL
same,Ht,[5],41.3%
same,Lym,[5],75%
same,MCH,[5],21.7 pg
same,MCHC,[5],33.6%
same,MCV,[5],64.6 fL
same,Mono,[5],10%
same,Neu,[5],14%
same,PT,[5],12.4 s
same,Plat,[5],112 x10_4/uL
same,RBC,[5],640.6 x10_4/ul
same,Ret,[5],8.1%
same,WBC,[5],82 x10_2/uL
same,KIDNEY_L,[5],1.1 g
same,KIDNEY_R,[5],1.1 g
same,KIDNEY_TOTAL,[5],2.2 g
same,LIVER,[5],9.9 g
same,ALP,[5],830.8 IU/L
same,ALT,[5],34.6 IU/L
same,AST,[5],63.8 IU/L
same,BUN,[5],13 mg/dL
same,CRE,[5],0.5 mg/dL
same,Ca,[5],11.1 mg/dL
same,DBIL,[5],0.046 mg/dL
same,GLC,[5],191.8 mg/dL
same,K,[5],4.7 meq/L
same,LDH,[5],160.4 IU/L
same,Na,[5],140.2 meq/L
same,PL,[5],129.8 mg/dL
same,RALB,[5],3.8 g/dL
same,TBIL,[5],0.4 mg/dL
same,TC,[5],75.8 mg/dL
same,TG,[5],36.6 mg/dL
same,TP,[5],5.6 g/dL
same,gamma-GTP,[5],1.6 IU/L
same,TERMINAL_BW,[6],208.4 g
same,APTT,[6],16.2 s
same,Bas,[6],0%
same,Eos,[6],0.6%
same,Fbg,[6],227.4 mg/dL
same,Hb,[6],14.1 g/dL
same,Ht,[6],42.2%
same,Lym,[6],64.8%
same,MCH,[6],21.8 pg
same,MCHC,[6],33.5%
same,MCV,[6],65.1 fL
same,Mono,[6],6.6%
same,Neu,[6],28%
same,PT,[6],12.3 s
same,RBC,[6],648.6 x10_4/ul
same,Ret,[6],7.8%
same,WBC,[6],115.3 x10_2/uL
same,KIDNEY_L,[6],1 g
same,KIDNEY_R,[6],1 g
same,KIDNEY_TOTAL,[6],2.1 g
same,LIVER,[6],9.5 g
same,ALP,[6],1127.2 IU/L
same,ALT,[6],29 IU/L
same,AST,[6],61.6 IU/L
same,BUN,[6],16.2 mg/dL
same,CRE,[6],0.5 mg/dL
same,Ca,[6],11.6 mg/dL
same,DBIL,[6],0.016 mg/dL
same,GLC,[6],191.6 mg/dL
same,K,[6],4.9 meq/L
same,LDH,[6],149 IU/L
same,Na,[6],140.8 meq/L
same,PL,[6],134.6 mg/dL
same,RALB,[6],3.9 g/dL
same,TBIL,[6],0.3 mg/dL
same,TC,[6],72 mg/dL
same,TG,[6],47 mg/dL
same,TP,[6],5.7 g/dL
same,gamma-GTP,[6],0.8 IU/L
same,TERMINAL_BW,[7],205 g
same,APTT,[7],16.9 s
same,Bas,[7],0%
same,Eos,[7],0.8%
same,Fbg,[7],230.2 mg/dL
same,Hb,[7],14.1 g/dL
same,Ht,[7],42.1%
same,Lym,[7],65.4%
same,MCH,[7],21.4 pg
same,MCHC,[7],33.6%
same,MCV,[7],63.6 fL
same,Mono,[7],5.4%
same,Neu,[7],28.6%
same,PT,[7],12.3 s
same,Plat,[7],110.4 x10_4/uL
same,RBC,[7],662.2 x10_4/ul
same,Ret,[7],8.1%
same,WBC,[7],82.6 x10_2/uL
same,KIDNEY_L,[7],1.1 g
same,KIDNEY_R,[7],1.1 g
same,KIDNEY_TOTAL,[7],2.2 g
same,LIVER,[7],9 g
same,ALP,[7],832.2 IU/L
same,ALT,[7],26 IU/L
same,AST,[7],62.2 IU/L
same,BUN,[7],18.8 mg/dL
same,CRE,[7],0.5 mg/dL
same,Ca,[7],11.1 mg/dL
same,DBIL,[7],0.028 mg/dL
same,GLC,[7],199.2 mg/dL
same,IP,[7],11.6 mg/dL
same,K,[7],4.7 meq/L
same,LDH,[7],162.2 IU/L
same,Na,[7],140.4 meq/L
same,PL,[7],151 mg/dL
same,RALB,[7],3.9 g/dL
same,TBIL,[7],0.4 mg/dL
same,TC,[7],80 mg/dL
same,TG,[7],53 mg/dL
same,TP,[7],5.9 g/dL
same,gamma-GTP,[7],1.8 IU/L
same,TERMINAL_BW,[8],220.7 g
same,APTT,[8],16.2 s
same,Bas,[8],0%
same,Eos,[8],1.2%
same,Fbg,[8],319.8 mg/dL
same,Hb,[8],13.8 g/dL
same,Ht,[8],41%
same,Lym,[8],70.6%
same,MCH,[8],21.9 pg
same,MCHC,[8],33.6%
same,MCV,[8],65.1 fL
same,Mono,[8],9.8%
same,Neu,[8],18.2%
same,PT,[8],12.1 s
same,Plat,[8],118.1 x10_4/uL
same,RBC,[8],629.4 x10_4/ul
same,Ret,[8],7.5%
same,WBC,[8],99.2 x10_2/uL
same,KIDNEY_L,[8],1.2 g
same,KIDNEY_R,[8],1.3 g
same,KIDNEY_TOTAL,[8],2.5 g
same,ALP,[8],923.6 IU/L
same,ALT,[8],28.4 IU/L
same,AST,[8],61.8 IU/L
same,BUN,[8],24.8 mg/dL
same,CRE,[8],0.6 mg/dL
same,Ca,[8],11.2 mg/dL
same,DBIL,[8],0.048 mg/dL
same,GLC,[8],196 mg/dL
same,IP,[8],9 mg/dL
same,K,[8],4.7 meq/L
same,LDH,[8],157 IU/L
same,Na,[8],139.8 meq/L
same,PL,[8],159.6 mg/dL
same,RALB,[8],3.8 g/dL
same,TBIL,[8],0.3 mg/dL
same,TC,[8],90.6 mg/dL
same,TG,[8],87.2 mg/dL
same,TP,[8],6 g/dL
same,gamma-GTP,[8],2 IU/L
